Measurements published in ChEMBL document CHEMBL1201862, “PubChem BioAssay data set” (2004).
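Protocol summary: plate cells (96-well), add compound at 5 concentrations, incubate 48 h, interpolate endpoints linearly. At the GI50, growth is halved.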 The source made the active and inactive calls. No stated cut-off is given here; in the data, active = GI50 up to about 1.1 µM and inactive = higher.

Key:
Experiment in all cases: NCI-60 cell line screen, 48 h
[1] = system: MOLT-4
[2] = system: TK-10
[3] = system: SF-539
[4] = system: SW-620
[5] = system: HT-29
[6] = system: OVCAR-5
[7] = system: PC-3
[8] = system: OVCAR-4
[9] = system: SNB-19
[10] = system: HCT-116
[11] = system: A498
[12] = system: ACHN
[13] = system: MCF7
[14] = system: SK-MEL-2
[15] = system: SK-MEL-5
[16] = system: UO-31
[17] = system: CAKI-1
[18] = system: SN12C
[19] = system: SK-MEL-28
[20] = system: K562

CCCC(=O)OC1C(C(O)CO)OC2OC(C)(C)OC21 (stereo not drawn)
GI50 [1]: > 100 µM (inactive) | GI50 [2]: > 100 µM (inactive) | GI50 [3]: > 100 µM (inactive) | GI50 [4]: > 100 µM (inactive) | GI50 [5]: > 100 µM (inactive) | GI50 [6]: > 100 µM (inactive) | GI50 [7]: > 100 µM (inactive) | GI50 [8]: > 100 µM (inactive) | GI50 [9]: > 100 µM (inactive) | GI50 [10]: > 100 µM (inactive) | GI50 [11]: > 100 µM (inactive) | GI50 [12]: > 100 µM (inactive) | GI50 [13]: > 100 µM (inactive) | GI50 [14]: > 100 µM (inactive) | GI50 [15]: > 100 µM (inactive) | GI50 [16]: > 100 µM (inactive) | GI50 [17]: > 100 µM (inactive) | GI50 [18]: > 100 µM (inactive) | GI50 [19]: > 100 µM (inactive)

NC(=O)NN=C1Cc2ccccc2C1
GI50 [1]: > 100 µM (inactive) | GI50 [2]: > 100 µM (inactive) | GI50 [3]: > 100 µM (inactive) | GI50 [4]: > 100 µM (inactive) | GI50 [20]: > 100 µM (inactive) | GI50 [5]: > 100 µM (inactive) | GI50 [6]: > 100 µM (inactive) | GI50 [7]: > 100 µM (inactive) | GI50 [8]: > 100 µM (inactive) | GI50 [9]: > 100 µM (inactive) | GI50 [10]: > 100 µM (inactive) | GI50 [11]: > 100 µM (inactive) | GI50 [12]: > 100 µM (inactive) | GI50 [13]: > 100 µM (inactive) | GI50 [14]: > 100 µM (inactive) | GI50 [15]: > 100 µM (inactive) | GI50 [16]: > 100 µM (inactive) | GI50 [17]: > 100 µM (inactive) | GI50 [18]: > 100 µM (inactive) | GI50 [19]: > 100 µM (inactive)

CN(C)Cc1cc(C(=O)/C=C/c2ccc(/C=C/C(=O)c3cc(CN(C)C)c(O)c(CN(C)C)c3)cc2)cc(CN(C)C)c1O
GI50 [1]: 12.7 µM (inactive) | GI50 [2]: 36.8 µM (inactive) | GI50 [3]: 24.4 µM (inactive) | GI50 [4]: 20.8 µM (inactive) | GI50 [20]: 25.3 µM (inactive) | GI50 [5]: 13.5 µM (inactive) | GI50 [6]: 17.4 µM (inactive) | GI50 [7]: 15.1 µM (inactive) | GI50 [8]: 50.6 µM (inactive) | GI50 [9]: > 100 µM (inactive) | GI50 [10]: 15.2 µM (inactive) | GI50 [11]: 57.9 µM (inactive) | GI50 [12]: 23.4 µM (inactive) | GI50 [13]: 9.42 µM (inactive) | GI50 [14]: 20.2 µM (inactive) | GI50 [15]: 42.9 µM (inactive) | GI50 [16]: 71.8 µM (inactive) | GI50 [17]: 39 µM (inactive) | GI50 [18]: 28.9 µM (inactive) | GI50 [19]: 29 µM (inactive)

O=C(O)CSc1n[nH]c(=O)[nH]c1=O
GI50 [1]: > 100 µM (inactive) | GI50 [3]: > 100 µM (inactive) | GI50 [4]: > 100 µM (inactive) | GI50 [20]: > 100 µM (inactive) | GI50 [5]: > 100 µM (inactive) | GI50 [6]: > 100 µM (inactive) | GI50 [7]: > 100 µM (inactive) | GI50 [8]: > 100 µM (inactive) | GI50 [9]: > 100 µM (inactive) | GI50 [10]: > 100 µM (inactive) | GI50 [11]: > 100 µM (inactive) | GI50 [12]: > 100 µM (inactive) | GI50 [13]: > 100 µM (inactive) | GI50 [14]: > 100 µM (inactive) | GI50 [15]: > 100 µM (inactive) | GI50 [16]: > 100 µM (inactive) | GI50 [17]: > 100 µM (inactive) | GI50 [18]: > 100 µM (inactive) | GI50 [19]: > 100 µM (inactive)

CCCCCCc1cc2cc(-c3cn4ccccc4n3)c(=O)oc2cc1O
GI50 [1]: 7.91 µM (inactive) | GI50 [2]: 15.5 µM (inactive) | GI50 [3]: 2.76 µM (inactive) | GI50 [4]: 9.93 µM (inactive) | GI50 [20]: 4.61 µM (inactive) | GI50 [5]: > 55.8 µM (inactive) | GI50 [6]: 21.8 µM (inactive) | GI50 [7]: 18.7 µM (inactive) | GI50 [8]: 4.66 µM (inactive) | GI50 [9]: 13.2 µM (inactive) | GI50 [10]: 4.55 µM (inactive) | GI50 [11]: 20.1 µM (inactive) | GI50 [12]: 18 µM (inactive) | GI50 [13]: 5.43 µM (inactive) | GI50 [14]: 13.6 µM (inactive) | GI50 [15]: 8.95 µM (inactive) | GI50 [16]: 8.39 µM (inactive) | GI50 [17]: 4.67 µM (inactive) | GI50 [18]: 5.35 µM (inactive) | GI50 [19]: 9.14 µM (inactive)

CC12CC3(O)OC(O1)C1(COC(=O)c4ccccc4)C3CC21OC1OC(CO)C(O)C(O)C1O (stereo not drawn)
GI50 [1]: > 100 µM (inactive) | GI50 [2]: > 100 µM (inactive) | GI50 [3]: > 100 µM (inactive) | GI50 [4]: > 100 µM (inactive) | GI50 [5]: > 100 µM (inactive) | GI50 [6]: > 100 µM (inactive) | GI50 [7]: > 100 µM (inactive) | GI50 [8]: > 100 µM (inactive) | GI50 [9]: > 100 µM (inactive) | GI50 [10]: > 100 µM (inactive) | GI50 [11]: > 100 µM (inactive) | GI50 [12]: > 100 µM (inactive) | GI50 [13]: > 100 µM (inactive) | GI50 [14]: > 100 µM (inactive) | GI50 [15]: > 100 µM (inactive) | GI50 [16]: > 100 µM (inactive) | GI50 [17]: > 100 µM (inactive) | GI50 [18]: > 100 µM (inactive) | GI50 [19]: > 100 µM (inactive)

c1ccc2c(OCC3CO3)ccc(OCC3CO3)c2c1 (stereo not drawn)
GI50 [1]: 0.352 µM (active) | GI50 [2]: 13.5 µM (inactive) | GI50 [3]: 2.21 µM (inactive) | GI50 [4]: 1.26 µM (inactive) | GI50 [20]: 2 µM (inactive) | GI50 [5]: 4.82 µM (inactive) | GI50 [6]: 11.2 µM (inactive) | GI50 [7]: 4.76 µM (inactive) | GI50 [8]: 7.05 µM (inactive) | GI50 [9]: 8.13 µM (inactive) | GI50 [10]: 1.36 µM (inactive) | GI50 [11]: 17 µM (inactive) | GI50 [12]: 1.89 µM (inactive) | GI50 [13]: 0.897 µM (active) | GI50 [15]: 6.64 µM (inactive) | GI50 [16]: 1.61 µM (inactive) | GI50 [17]: 1.74 µM (inactive) | GI50 [18]: 2.22 µM (inactive) | GI50 [19]: 9.98 µM (inactive)

CCCSC1=N/C(=C\c2ccco2)C(=O)N1
GI50 [1]: > 100 µM (inactive) | GI50 [2]: > 100 µM (inactive) | GI50 [3]: > 100 µM (inactive) | GI50 [4]: > 100 µM (inactive) | GI50 [5]: > 100 µM (inactive) | GI50 [6]: > 100 µM (inactive) | GI50 [7]: > 100 µM (inactive) | GI50 [8]: > 100 µM (inactive) | GI50 [9]: > 100 µM (inactive) | GI50 [10]: > 100 µM (inactive) | GI50 [11]: 89.7 µM (inactive) | GI50 [12]: > 100 µM (inactive) | GI50 [13]: 36 µM (inactive) | GI50 [14]: > 100 µM (inactive) | GI50 [16]: > 100 µM (inactive) | GI50 [17]: > 100 µM (inactive) | GI50 [18]: > 100 µM (inactive) | GI50 [19]: > 100 µM (inactive)

Cc1ccc(/N=N/c2c(O)ccc3cc(S(=O)(=O)O)cc(S(=O)(=O)O)c23)cc1
GI50 [1]: > 100 µM (inactive) | GI50 [2]: > 100 µM (inactive) | GI50 [3]: > 100 µM (inactive) | GI50 [4]: > 100 µM (inactive) | GI50 [20]: > 100 µM (inactive) | GI50 [6]: > 100 µM (inactive) | GI50 [7]: > 100 µM (inactive) | GI50 [8]: > 100 µM (inactive) | GI50 [9]: > 100 µM (inactive) | GI50 [10]: > 100 µM (inactive) | GI50 [11]: > 100 µM (inactive) | GI50 [12]: > 100 µM (inactive) | GI50 [13]: > 100 µM (inactive) | GI50 [14]: > 100 µM (inactive) | GI50 [15]: > 100 µM (inactive) | GI50 [16]: > 100 µM (inactive) | GI50 [17]: > 100 µM (inactive) | GI50 [18]: > 100 µM (inactive) | GI50 [19]: > 100 µM (inactive)

C[N+](C)(C)[BH-](Br)C(O)O (stereo not drawn)
GI50 [1]: > 100 µM (inactive) | GI50 [2]: > 100 µM (inactive) | GI50 [3]: > 100 µM (inactive) | GI50 [4]: > 100 µM (inactive) | GI50 [20]: > 100 µM (inactive) | GI50 [5]: > 100 µM (inactive) | GI50 [6]: > 100 µM (inactive) | GI50 [7]: > 100 µM (inactive) | GI50 [8]: > 100 µM (inactive) | GI50 [9]: > 100 µM (inactive) | GI50 [10]: > 100 µM (inactive) | GI50 [11]: > 100 µM (inactive) | GI50 [12]: > 100 µM (inactive) | GI50 [13]: > 100 µM (inactive) | GI50 [14]: > 100 µM (inactive) | GI50 [15]: > 100 µM (inactive) | GI50 [16]: > 100 µM (inactive) | GI50 [17]: > 100 µM (inactive) | GI50 [18]: > 100 µM (inactive) | GI50 [19]: > 100 µM (inactive)
